Test systems include OVCAR-3 ovarian; IGROV1 ovarian; EKVX NSCLC; HT29 colon; U251 CNS; MALME-3M melanoma; MOLT-4 leukemia; CCRF-CEM leukemia; ACHN renal; M14 melanoma.
Holding throughout (assay): inhibition of tumour cell growth, NCI panel, 48 h

Among the data in PubChem BioAssay (NCI) are GI50 and TGI values, retold here.

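A five-concentration, 48-hour dose response in 96-well plates underlies each endpoint, interpolated linearly between surrounding concentrations. GI50 is the concentration that inhibits growth by half. At the TGI there is no net growth.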

As to `CCCCC(=O)OCC1OC(n2cnc3c(=S)nc[nH]c32)C(OC(=O)CCCC)C1OC(=O)CCCC` (configuration not stated), the GI50 in the experiment on OVCAR-3 ovarian is 1.01 µM; in the experiment on IGROV1 ovarian it was 3.86 µM; in the experiment on HT29 colon, 3.64 µM; in the experiment on U251 CNS it was 13.4 µM; with MALME-3M melanoma, over 22.1 µM; in the experiment with MOLT-4 leukemia, 5.74 µM. Besides, the GI50 is 3.25 µM in the experiment with CCRF-CEM leukemia, 2.59 µM with ACHN renal and 0.779 µM with M14 melanoma. Besides, the TGI is over 36.3 µM with OVCAR-3 ovarian; over 39.4 µM in the experiment on IGROV1 ovarian; over 100 µM with EKVX NSCLC; over 100 µM in the experiment on HT29 colon; over 100 µM with U251 CNS; over 100 µM with MALME-3M melanoma. For the same compound, the TGI in the experiment on MOLT-4 leukemia is over 100 µM; in the experiment with CCRF-CEM leukemia, over 100 µM; in the experiment on ACHN renal it was over 100 µM; with M14 melanoma, 10.7 µM.
As to `O=c1oc2ccc(F)cc2c(=O)n1-c1ccc(F)cc1F`, the GI50 in the experiment on OVCAR-3 ovarian was 3.26 µM; in the experiment on IGROV1 ovarian it was 3.01 µM; in the experiment on EKVX NSCLC, 2.54 µM; in the experiment with HT29 colon it was 3.91 µM; in the experiment on U251 CNS, 3.26 µM; in the experiment with MALME-3M melanoma it was 2.25 µM. In addition, the GI50 with MOLT-4 leukemia is 3.46 µM; with CCRF-CEM leukemia it was 3.95 µM; in the experiment with ACHN renal it was 2.71 µM; in the experiment on M14 melanoma, 2.47 µM. Besides, the TGI in the experiment on OVCAR-3 ovarian was 27.7 µM; with IGROV1 ovarian, over 100 µM; with EKVX NSCLC it was 9.79 µM; with HT29 colon, 49.8 µM; in the experiment on U251 CNS, 38.8 µM; in the experiment with MALME-3M melanoma it was 6.33 µM. Moreover, the TGI in the experiment on MOLT-4 leukemia is over 100 µM; in the experiment on CCRF-CEM leukemia, 67.4 µM; in the experiment with ACHN renal it was 8.63 µM; in the experiment with M14 melanoma, 8.04 µM.
On to `CC1CCC2(C(=O)O)CCC3(C)C(=CCC4C5(C)CC(O)C(O)C(C)(CO)C5C(O)CC43C)C2C1C` (configuration not stated), for which the TGI with OVCAR-3 ovarian was 50.8 µM; in the experiment with IGROV1 ovarian, 35.9 µM; in the experiment on EKVX NSCLC it was over 100 µM; in the experiment with HT29 colon, over 100 µM; in the experiment with U251 CNS it was 45.5 µM; in the experiment with MALME-3M melanoma it was over 100 µM. Besides, the TGI is over 100 µM in the experiment with MOLT-4 leukemia, 53.3 µM with CCRF-CEM leukemia, over 100 µM with ACHN renal and over 100 µM in the experiment with M14 melanoma.
Take `Cn1c(N2NC(=O)C(N=Nc3ccc(S(N)(=O)=O)cc3)C2=O)nc(-c2ccco2)c(C#N)c1=O` (configuration not stated): the GI50 is 13.4 µM with OVCAR-3 ovarian; over 50 µM with IGROV1 ovarian; 35.7 µM with EKVX NSCLC; 33.4 µM in the experiment on HT29 colon; 42.3 µM in the experiment on U251 CNS; 0.0614 µM with MALME-3M melanoma. For the same compound, the GI50 with MOLT-4 leukemia was 9.27 µM; with CCRF-CEM leukemia it was 8.63 µM; in the experiment on ACHN renal it was 15.6 µM; with M14 melanoma, 21.9 µM. Further, the TGI with OVCAR-3 ovarian is over 50 µM; with IGROV1 ovarian, over 50 µM; with EKVX NSCLC it was over 50 µM; in the experiment with HT29 colon it was over 50 µM; in the experiment on U251 CNS, over 50 µM; with MALME-3M melanoma, 7.62 µM. The TGI in the experiment on MOLT-4 leukemia is 27.8 µM; in the experiment with CCRF-CEM leukemia it was over 50 µM; in the experiment with ACHN renal it was over 50 µM; with M14 melanoma it was over 50 µM.
As to `Cc1cc2c(cc1C)[n+](=O)c(C(=O)CC(=O)C(=O)Nc1c(C(C)C)cccc1C(C)C)c(C)n2[O-]`, the TGI with OVCAR-3 ovarian, in the experiment on IGROV1 ovarian, in the experiment with EKVX NSCLC, with HT29 colon, in the experiment with U251 CNS and in the experiment with MALME-3M melanoma was over 100 µM throughout. The TGI in the experiment with MOLT-4 leukemia, in the experiment with CCRF-CEM leukemia, in the experiment with ACHN renal and in the experiment on M14 melanoma was over 100 µM each time.
Regarding `CC1(Cl)C(=O)NC(=O)N(C2CC(N=[N+]=[N-])C(CO)O2)C1N=[N+]=[N-]` (configuration not stated), the TGI in the experiment with OVCAR-3 ovarian, in the experiment on IGROV1 ovarian, in the experiment with EKVX NSCLC, with HT29 colon, in the experiment on U251 CNS and in the experiment on MALME-3M melanoma was over 100 µM in each case. The TGI in the experiment with MOLT-4 leukemia, in the experiment with CCRF-CEM leukemia, with ACHN renal and in the experiment with M14 melanoma was over 100 µM each time.
On to `COC(=O)C[C@H]1CCC2(OCCO2)[C@]1(C)C(=O)OC`, for which the TGI with OVCAR-3 ovarian, in the experiment with IGROV1 ovarian, in the experiment on EKVX NSCLC, with HT29 colon, in the experiment with U251 CNS and in the experiment on MALME-3M melanoma was over 100 µM throughout. The TGI in the experiment on MOLT-4 leukemia, in the experiment on CCRF-CEM leukemia, in the experiment on ACHN renal and with M14 melanoma was over 100 µM throughout.
Turning to `O=C(c1ccco1)c1nc2ccc(C(F)(F)F)cc2[n+]([O-])c1C(F)(F)F`, the GI50 with OVCAR-3 ovarian is 98.8 µM; in the experiment with IGROV1 ovarian, 35.6 µM; in the experiment on EKVX NSCLC it was 12.9 µM; in the experiment on HT29 colon, 29.9 µM; in the experiment with U251 CNS, 52.6 µM; with MALME-3M melanoma, 27.9 µM. Also, the GI50 in the experiment on MOLT-4 leukemia was over 100 µM; with CCRF-CEM leukemia, over 100 µM; in the experiment with ACHN renal, 54.5 µM; in the experiment on M14 melanoma, over 100 µM. Also, the TGI was over 100 µM in the experiment on OVCAR-3 ovarian; over 100 µM with IGROV1 ovarian; over 100 µM in the experiment on EKVX NSCLC; over 100 µM in the experiment on HT29 colon; over 100 µM in the experiment with U251 CNS; 77.2 µM in the experiment with MALME-3M melanoma. Moreover, the TGI in the experiment on MOLT-4 leukemia, with CCRF-CEM leukemia, in the experiment on ACHN renal and in the experiment with M14 melanoma was over 100 µM in each case.
Regarding `O=C1OCc2c1cc1ccc(O)c(OC3OC(CO)C(O)C(O)C3O)c1c2-c1ccc2c(c1)OCO2` (configuration not stated), the GI50 in the experiment on OVCAR-3 ovarian was 64.6 µM; with MOLT-4 leukemia, 34.3 µM; in the experiment with CCRF-CEM leukemia, 34.9 µM. Moreover, the TGI in the experiment on OVCAR-3 ovarian, in the experiment on IGROV1 ovarian, in the experiment with EKVX NSCLC, in the experiment with HT29 colon, with U251 CNS and in the experiment on MALME-3M melanoma was over 100 µM each time. The TGI in the experiment on MOLT-4 leukemia, in the experiment with CCRF-CEM leukemia, with ACHN renal and in the experiment on M14 melanoma was over 100 µM throughout.
